Source: article PMC10447463, “Data-mining unveils structure–property–activity correlation of viral infectivity enhancing self-assembling peptides” (Nature Communications, 2023)
Values joined by “and” are separate entries in the source; they are usually repeats but may differ in a detail not shown here. Identical values can stand only once. Like-named read-outs stand apart in the source and are kept apart here.

Key:
[1] = format: physicochemical; conditions: STD prep
[2] = β-sheet content by ATR-FT-IR; format: physicochemical
Outline: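 Fluorescence at 470 nm (365 nm excitation) was read 20 min after adding fluorescamine to DMSO-dissolved filtrate and unfiltered PNF, then CR computed as 100 − 100 × filtrate/original. Secondary structure came from ATR FT-IR spectra of lyophilized PNF powder.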

[3] = tested on: HIV-1 infection of TZM-bl cells; assay: HIV-1 infectivity enhancement assay, β-galactosidase luminescence; format: cell-based; conditions: for Rel-to EFC / n-fold to virus: Fig S8 panels B, D; for Log10 Inf. rel. to EF-C: log10 of HIV-1 infection of TZM-bl cells relative to EF-C, Fig S15 source data, asymmetric std dev errors
[4] = ref sieste 2021 or Schilling2019, cited from earlier work
From the text: Supplement 41467_2023_40663_MOESM7_ESM.zip/FigS17.csv, table | column: Conversion Rate / % ( from sieste 2021 or Schilling2019)

[5] = Zeta-potential measurement; format: physicochemical; conditions: for Zeta-pot. / mV: zeta potential of peptide, Fig S15 source data
Outline: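 Peptides diluted from DMSO stock into PBS pH 7.4 to 1 mg/mL and aged 1 d at RT, then diluted into 1 mM aqueous KCl. Zeta potential derived from electrophoretic mobility via Smoluchowski; triplicates, averaged over two independent experiments.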

[6] = Feb2021, Log10 of infectivity relative to EF-C
[7] = Feb2021, n-fold enhancement relative to EF-C
[8] = Feb2021, n-fold infectivity relative to EF-C
[9] = Feb2021 run, infectivity n-fold relative to virus alone
[10] = Feb2021 run, log10 of infectivity relative to EF-C
[11] = Feb2021 run, n-fold infectivity relative to EF-C
[12] = infectivity enhancement relative to EF-C
[13] = infectivity n-fold relative to virus alone
[14] = infectivity class (low / medium / high) of the peptide in the sequence-pattern analysis, Fig. S22-A4, class limits not given
[15] = Feb2021, 1.3 µM value relative to virus only (0 µM)
[16] = Feb2021, unrounded values of the 1.3 µM column
[17] = infectivity class (low / medium / high) of each library peptide, main list in c1-c6, same classes repeated in sub-lists of sequences containing the hydrophobicity/charge patterns P+,H0,P+,H0,P0,H0,P0, P+,H0,P0,H0,P0,H0,P0, P+,H0,P0,H0

Substance	TEM: 1= fibrils, 0= aggregates (micelle), 0.5 = aggregates and fibrils, -1 = nothing obersved, STD prep [1]	FTIR ß-sheet content/ % [2]	FTIR ß-sheet content/ % ([2]; ATR-FT-IR)	Log10 of Rel to EFC (Feb2021) [3, 6]	Rel-to EFC (Feb-2021) [3, 7]	Rel-to EFC (Feb-2021) [3, 8]	n-fold to virus (Feb2021) [3, 9]	Log10 of Rel to EFC (Feb2021) [3, 10]	Rel-to EFC (Feb-2021) [3, 11]	Rel-to EFC [3, 12]	Log10 Inf. rel. to EF-C [3]	Zeta category ( +1 = if > 4 mV;-1 = if < -4 mV; 0 = -4mV to 4 mV) [5]	Zeta category ( +1 = if > 4 mV;-1 = if < -4 mV; 0 = -4mV to 4 mV) ([5]; category from zeta potential)	Zeta Pot. / mV ([5]; mean, Std Zeta in next column)	Zeta Pot. / mV ([5]; mean, Std in separate column)	Zeta-pot. / mV [5]	n-fold to virus (Feb2021) [3, 15]	Absolute Infectivity / RLU /s (Feb2021) [3, 16]	Conversion Rate / % ( from sieste 2021 or Schilling2019) [4]	infectivity [3, 17]	further results
CKIKQIINMWQ [MG5a / CK17]	1	51%	51%	0.09484	1.244	1.244	52.27	0.09484	1.244	1.244	0.09484	1 (+1 = if > 4 mV)	1 (+1 = if > 4 mV)	13.4 mV	13.4 mV	13.4 mV					Absolute Infectivity / RLU /s (Feb2021) ([3]; Feb2021, figures match the 1.3 µM column): 23696.66667 RLU /s; n-fold to virus (Feb2021) ([3]; Feb2021, infectivity relative to virus only): 52.27; n-fold to virus [3, 13]: 52.27; infectivity [3, 14]: high; Rel-to EFC (Feb-2021) ([3]; infectivity enhancement relative to EF-C (=1), Feb2021 run): 1.244; n-fold to virus (Feb2021) ([3]; infectivity n-fold relative to virus only, Feb2021 run): 52.27; Log10 of Rel to EFC (Feb2021) ([3]; log10 of infectivity relative to EF-C, Feb2021 run): 0.09484; Conversion Rate / % ( from sieste 2021 or Schilling2019) ([4]; previously reported peptides only): 50%; Zeta Pot. / mV [5]: 13.4 mV
CSISIQI [TM141]	1		58.57%			0.05593				0.05593	-1.252	-1 (-1 = if < -4 mV)		-25.93 mV		-25.93 mV	2.35	3087 RLU /s	82%		Log10 of Rel to EFC (Feb2021) ([3]; Feb2021, log10 of infectivity relative to EF-C): -1.252; n-fold to virus [3, 13]: 2.35; infectivity [3, 14]: low
KAKAQANMWQ [JG3]	0.5	42.81%	43% and 42.81%	-2.146	0.007152	0.007152	0.3005	-2.146	0.007152		-2.146	-1 (-1 = if < -4 mV)	-1 (-1 = if < -4 mV)	-19.63 mV	-19.63 mV	-19.63 mV	0.3005	193.3 RLU /s	65%	low	
KFKFQF [JJA6]	0.5	46%	46%	-1.213	0.06128	0.06128	2.575	-1.213	0.06128		-1.213	-1 (-1 = if < -4 mV)	-1 (-1 = if < -4 mV)	-11.03 mV	-11.03 mV	-11.03 mV	2.575	686.7 RLU /s	83%	low	
KFKFQFNM [BL6a]	1	40.31%	40% and 40.31%	-0.3265	0.4715	0.4715	19.81	-0.3265	0.4715		-0.3265	1 (+1 = if > 4 mV)	1 (+1 = if > 4 mV)	13.9 mV	13.9 mV	13.9 mV	19.81	7067 RLU /s	91%	medium	
KFKFQFNMWQ [JG4]	1	43.15%	43% and 43.15%	-0.1164	0.7649	0.7649	32.14	-0.1164	0.7649	0.7649	-0.1164	1 (+1 = if > 4 mV)	1 (+1 = if > 4 mV)	25.4 mV	25.4 mV	25.4 mV	32.14	20676.66667 RLU /s	94%	high	TEM: 1= fibrils, 0= aggregates (micelle), 0.5 = aggregates and fibrils, -1 = nothing obersved, STD prep ([1]; TEM): 1; Absolute Infectivity / RLU /s (Feb2021) ([3]; Feb2021 data set, in other rows equals the 1.3 µM column, mean, STD in separate column): 20676.66667 RLU /s; Rel-to EFC (Feb-2021) ([3]; Feb2021 data set, infectivity enhancement relative to EF-C): 0.7649; n-fold to virus (Feb2021) ([3]; Feb2021 data set, infectivity n-fold to virus alone): 32.14; Log10 of Rel to EFC (Feb2021) ([3]; Feb2021 data set, log10 of infectivity relative to EF-C): -0.1164; n-fold to virus [3, 13]: 32.1399; infectivity [3, 14]: high; Conversion Rate / % ( from sieste 2021 or Schilling2019) ([4]; literature value): 94%; Zeta Pot. / mV ([5]; mean, Std Zeta in separate column): 25.4 mV
